Laboratory results as given in PMC6384991, “5-Arylideneimidazolones with Amine at Position 3 as Potential Antibiotic Adjuvants against Multidrug Resistant Bacteria” (Molecules, 2019).
“And” between values parts separate entries of the source, which are not always exact repeats. Equal values may be shown once. Read-outs that look alike come from different tables or passages of the source.

Key:
[1] = test system: MRSA HEMSA 5; assay: Intrinsic antibacterial activity (MIC, microdilution) against MRSA HEMSA 5; type: cell-based, S. aureus
Experimental: (§1) Initially, 12 arylideneimidazolone derivatives were evaluated in vitro for their intrinsic antibacterial effect against two strains of S. aureus: the reference strain S. aureus ATCC 25923 and extremely-drug resistant (XDR) MRSA HEMSA 5 clinical isolate. This step of the study was necessary for: (i) elucidation whether molecules tested are devoid of antistaphylococcal activity and thus cannot become antimicrobial agents by themselves; and (ii) determination of the concentrations of compounds suitable for the further assay on their antibiotic adjuvant potency. In addition, the antistaphylococcal efficacy of oxacillin, which was paired with compounds tested, in the following assays was also assessed (Table 3).

[2] = test system: S. aureus ATCC 25923; assay: Intrinsic antibacterial activity (MIC, microdilution) against reference S. aureus strain; type: cell-based; settings: S. aureus ATCC 25923, compound alone, MH II broth
Experimental: as §1

[3] = PAMPA membrane permeability (Pre-coated PAMPA Plate System Gentest); type: in vitro ADME; settings: 200 µM in PBS pH 7.4, room temperature, read-out: Pe ± SD
[4] = test system: Salmonella typhimurium TA100; type: cell-based; settings: for Mean of Revertants: 72 h; for Fold Increase Over Baseline: mutagenic if ≥ 2; for Binomial B-Value: ≤ 0.01 may be cytotoxic effect
Experimental: The mutagenicity was evaluated using Ames microplate fluctuation protocol (MPF) performed with Salmonella typhimurium TA100 strain, which is able to detect base pair substitutions. Calculation of medium control baseline (MCB) was performed basing on mean number of revertants in standard medium control in addition with one standard deviation. According to the manufacturer’s protocol, the mutagen alert is determined as 2-fold of medium control baseline (2 x MCB), which in this study was calculated as 24 revertants.
Ames microplate fluctuation protocol (MPF) assay was obtained from Xenometrix AG (Allschwil, Switzerland). The occurrence of mutagen-induced or spontaneous reversion events to histidine prototrophy was determined as a growth of S. typhimurium TA100 in the indicator medium without histidine after 72 h incubation at 37 °C temperature. NQNO (0.5 µM) was used as a positive control. Compound 9 was tested in triplicate at the final concentrations 1 and 10 µM. The revertants’ growth induced the colour change of medium which was analysed next colourimetrically with a microplate reader (EnSpire, PerkinElmer, Waltham, MA, USA) at 420 nm.

[5] = test system: HepG2 cells; assay: Hepatotoxicity, MTS viability assay; type: cell-based; settings: 72 h
Experimental: Determination of potential hepatotoxicity was performed with hepatoma HepG2 cells by standard colorimetric MTS procedure. Compound 9 was diluted into the cell culture media in the following concentrations: 0.1, 1, 10 and 100 μM, added to the cells and incubated for 72 h at 37 °C in the presence of 5% CO2. The cytostatic drug doxorubicin (DX) was used at 1 µM, as the reference. […] However, in comparison to the result obtained for the reference DX the hepatotoxicity potential of tested compound is moderate, as its decreased cells’ viability to ~74% of control at 10 µM, whereas DX to ~15% of control at 1 µM (Figure 10).
The HepG2 cells were seeded in 96-well plates at a concentration of 1 × 10^4 cells/well and incubated for 24 h at 37 °C in 5% CO2 atmosphere to reach 50% of confluence. Compound 9 was diluted into fresh growth medium and added to the cells at the final concentrations 0.1 μM–100 μM. The positive controls DX and CCCP were added at 1 μM and 10 μM, respectively, and the cells were incubated for 72 h. The MTS reagent (CellTiter 96® AQueous One Solution Cell Proliferation Assay, Promega, Madison, WI, USA) was added next to the each well and incubated for 4 h. The absorbance was measured next using a microplate reader (EnSpire, PerkinElmer, Waltham, MA USA) at 490 nm to determine cells’ viability.

[6] = test system: AcrAB-TolC efflux pump in E. aerogenes Ea-289; assay: Real-time efflux (RTE) assay with 1,2'-dNA; settings: compound 100 µM; Ea-289 strain
[7] = test system: E. aerogenes Ea-294, Ea-298; assay: MIC (microdilution) against E. aerogenes strains devoid of AcrAB / TolC
[8] = test system: E. aerogenes CM-64; assay: MIC (microdilution) against E. aerogenes CM-64 overexpressing AcrAB-TolC
[9] = test system: E. aerogenes Ea-289; assay: MIC (microdilution) against E. aerogenes Ea-289 overexpressing AcrAB-TolC, porin-deficient
[10] = test system: MRSA HEMSA 5; assay: MIC reduction assay: influence on oxacillin susceptibility in MRSA; type: cell-based, S. aureus
Experimental: The lack of a direct antibacterial activity of arylideneimidazolone derivatives tested allowed analyzing their anti-resistance potency in combination with the β-lactam antibiotic, oxacillin. […] The potential of compounds to become antibiotic adjuvants was evaluated by comparing the drug effectiveness in the presence and absence of compounds tested, thereby, by determining activity gain parameter A (Table 5). […] Slightly lower adjuvant-like activity was determined for the imidazolone derivatives 7 and 10 (A = 8–16). The efficacy of the remaining compounds was slightly less marked, however, also significant. Although compounds tested improved noticeably the antibacterial activity of oxacillin against MRSA clinical isolate, none of them restored the activity of the antibiotic (MIC < 2 µg/mL) against this highly resistant strain.

[11] = test system: S. aureus ATCC 25923; assay: MIC reduction assay: influence on oxacillin susceptibility in reference strain; type: cell-based

For `CN1CCN(CCCN2C(=O)/C(=C/c3ccc4ccccc4c3)N=C2N)CC1.Cl` [Compound 9, (Z)-2-Amino-3-(3-(4-methylpiperazin-1-yl)propyl)-5-(naphthalen-2-ylmethylene)-3H-imidazol-4(5H)-one hydrochloride], the MIC ([1]; Staphylococcus aureus, MRSA HEMSA 5, compound alone, MH II broth, read-out: MIC Value) was 500 µM, the MIC ([2]; Staphylococcus aureus, ATCC25923, read-out: MIC Value) was 500 µM and the Papp at 5 h, 200 µM [3] was 0.72 ± 0.27 ×10⁻⁶ cm/s. For the same molecule, the “Mean of Revertants” value ([4]; 1 µM) was 9.33, the “Fold Increase Over Baseline” value ([4]; 1 µM) was 0.78 and the “Binomial B-Value” ([4]; 1 µM) was 0.6331. For the same molecule, the “Mean of Revertants” value ([4]; 10 µM) was 5.33, the “Fold Increase Over Baseline” value ([4]; 10 µM) was 0.44 and the “Binomial B-Value” ([4]; 10 µM) was 0.0093. For the same molecule, the maximum revertants occurred ([4]; 1 and 10 µM, mutagen alert 24 revertants) was at most 11 revertants, the “HepG2 cells' viability” value ([5]; 10 µM, MTS) was ~ 74 % of control and the “effect on HepG2 cells viability” value ([5]; 10 and 100 µM, p < 0.001 vs control) was “statistically significant decrease”. For the same molecule, the melting point was 215 to 217 °C, the “Inhibitory efficiency (IE) of 1,2'-dNA efflux” value [6] was 80% and the MIC ([7]; Klebsiella aerogenes) was 1000 µM. It also gave an MIC ([8]; Klebsiella aerogenes, CM64) of over 2000 µM and an MIC ([9]; Klebsiella aerogenes, EA289) of over 2000 µM.

In the case of “(Z)-5-((9H-Fluoren-2-yl)methylene)-2-amino-3-(2-(4-methylpiperazin-1-yl)ethyl)-3H-imidazol-4(5H)-one hydrochloride [Compound 13]”, the “MIC Value” ([1]; MRSA HEMSA 5, compound alone, MH II broth) is reported as 125 µM, the MIC ([1]; text summary for both strains: ATCC 25923 and MRSA HEMSA 5) is reported as 0.0625–0.125 mM and 28.25–56.5 µg/mL and the “MIC Value” [2] is reported as 62.5 to 125 µM. The “Activity Gain [A]” value [10] was 4–8, the “Range of Reduction (oxacillin MIC)” value [10] was “from 512 to 64-128” and the “Activity Gain [A]” value [11] was 1. The “Range of Reduction (oxacillin MIC)” value [11] was “no effect”, the MIC ([7]; Ea-294, Ea-298) was 250 µM and the MIC ([8]; CM-64) was 500 µM. The MIC ([9]; Ea-289) was 500 µM.
